Source: US20150225454A1, “TETRABRANCHED PEPTIDES AND ANALOGUES AS A NEW CLASS OF ANTIMICROBIALS AND THEIR PREPARATION THEREOF” (priority 2012, published 2015)
Where a SMILES comes first, the peptide text is derived from it. Bridges are numbered along the chain shown (N, C = ends). Roman numbers before positions name the chains, in order.

Tested on: IOBA-NHC cells
Type: cell-based, human
Settings: 24 h
Description: IOBA-NHC cells were cultured under standard conditions (humidified atmosphere of 5% CO2 at 37° C.) in DMEM/F12 supplemented with 1 μg/ml bovine pancreas insulin, 2 ng/ml mouse epidermal growth factor, 0.1 μg/ml cholera toxin, […] hydrocortisone, 10% fetal bovine serum (FBS), 50 UI/ml penicillin, and 50 UI/ml streptomycin. Cells from passages 50-80 were used in all experiments. Every day, normal culture development was observed by phase-contrast microscopy. Cells were removed by gentle trypsin incubation at confluence and counted. They were seeded into 96 well culture plates (Corning, Schiphol-Rijk, The Netherlands) for microtitration analysis of flow cytotoxicity assay (˜10,000 cells/well). Cultures were kept at 37° C. for 24 h. Subconfluent cells (culture surface covering nearly 70%) were then exposed to various peptide concentrations (0.22-225 μM). Cytotoxicity was measured periodically using MultiTox-Fluor Multiplex assay kit (Promega, Wis., USA) by measuring the AFC fluorescence (λex=485 and λem=520 nm).

Compound	EC50
CC(C)[C@H](NC(=O)[C@H](CCCCN)NC(=O)[C@H](CCCNC(=N)N)NC(=O)CNC(=O)[C@@H](N)CCCNC(=N)N)C(=O)N[C@H](C(=O)N[C@@H](C)C(=O)N[C@@H](C)C(=O)NCCCC[C@H](NC(=O)[C@H](C)NC(=O)[C@H](C)NC(=O)[C@@H](NC(=O)[C@@H](NC(=O)[C@H](CCCCN)NC(=O)[C@H](CCCNC(=N)N)NC(=O)CNC(=O)[C@@H](N)CCCNC(=N)N)C(C)C)C(C)C)C(=O)NCCCC[C@H](NC(=O)[C@H](CCCCNC(=O)[C@H](C)NC(=O)[C@H](C)NC(=O)[C@@H](NC(=O)[C@@H](NC(=O)[C@H](CCCCN)NC(=O)[C@H](CCCNC(=N)N)NC(=O)CNC(=O)[C@@H](N)CCCNC(=N)N)C(C)C)C(C)C)NC(=O)[C@H](C)NC(=O)[C@H](C)NC(=O)[C@@H](NC(=O)[C@@H](NC(=O)[C@H](CCCCN)NC(=O)[C@H](CCCNC(=N)N)NC(=O)CNC(=O)[C@@H](N)CCCNC(=N)N)C(C)C)C(C)C)C(=O)N[C@@H](CCCCN)C(=O)O)C(C)C [[(SEQ ID NO: 11)2K]2KK] (I: H-RGRKVVAAKKK-OH / II: H-RGRKVVAAK / III: H-RGRKVVAA / IV: H-RGRKVVAA; amide I:9-IV:C, I:10-II:C, II:9-III:C; N-terminus and C-terminus assumed)	> 257 µM
CC(C)[C@H](NC(=O)[C@H](C)NC(=O)[C@H](C)NC(=O)[C@H](C)NC(=O)CNC(=O)[C@@H](N)CCCNC(=N)N)C(=O)N[C@@H](CCCNC(=N)N)C(=O)N[C@@H](CCCNC(=N)N)C(=O)NCCCC[C@H](NC(=O)[C@H](CCCNC(=N)N)NC(=O)[C@H](CCCNC(=N)N)NC(=O)[C@@H](NC(=O)[C@H](C)NC(=O)[C@H](C)NC(=O)[C@H](C)NC(=O)CNC(=O)[C@@H](N)CCCNC(=N)N)C(C)C)C(=O)NCCCC[C@H](NC(=O)[C@H](CCCCNC(=O)[C@H](CCCNC(=N)N)NC(=O)[C@H](CCCNC(=N)N)NC(=O)[C@@H](NC(=O)[C@H](C)NC(=O)[C@H](C)NC(=O)[C@H](C)NC(=O)CNC(=O)[C@@H](N)CCCNC(=N)N)C(C)C)NC(=O)[C@H](CCCNC(=N)N)NC(=O)[C@H](CCCNC(=N)N)NC(=O)[C@@H](NC(=O)[C@H](C)NC(=O)[C@H](C)NC(=O)[C@H](C)NC(=O)CNC(=O)[C@@H](N)CCCNC(=N)N)C(C)C)C(=O)N[C@@H](CCCCN)C(=O)O [[(SEQ ID NO: 14)2K]2KK] (I: H-RGAAAVRRKKK-OH / II: H-RGAAAVRRK / III: H-RGAAAVRR / IV: H-RGAAAVRR; amide I:9-IV:C, I:10-II:C, II:9-III:C; N-terminus and C-terminus assumed)	> 257 µM
C[C@H](NC(=O)CNC(=O)[C@@H](N)CCCNC(=N)N)C(=O)N[C@@H](CCCCN)C(=O)N[C@@H](C)C(=O)N[C@@H](C)C(=O)N[C@@H](CCCNC(=N)N)C(=O)N[C@@H](CCCNC(=N)N)C(=O)NCCCC[C@H](NC(=O)[C@H](CCCNC(=N)N)NC(=O)[C@H](CCCNC(=N)N)NC(=O)[C@H](C)NC(=O)[C@H](C)NC(=O)[C@H](CCCCN)NC(=O)[C@H](C)NC(=O)CNC(=O)[C@@H](N)CCCNC(=N)N)C(=O)NCCCC[C@H](NC(=O)[C@H](CCCCNC(=O)[C@H](CCCNC(=N)N)NC(=O)[C@H](CCCNC(=N)N)NC(=O)[C@H](C)NC(=O)[C@H](C)NC(=O)[C@H](CCCCN)NC(=O)[C@H](C)NC(=O)CNC(=O)[C@@H](N)CCCNC(=N)N)NC(=O)[C@H](CCCNC(=N)N)NC(=O)[C@H](CCCNC(=N)N)NC(=O)[C@H](C)NC(=O)[C@H](C)NC(=O)[C@H](CCCCN)NC(=O)[C@H](C)NC(=O)CNC(=O)[C@@H](N)CCCNC(=N)N)C(=O)N[C@@H](CCCCN)C(=O)O [[(SEQ ID NO: 15)2K]2KK] (I: H-RGAKAARRKKK-OH / II: H-RGAKAARRK / III: H-RGAKAARR / IV: H-RGAKAARR; amide I:9-IV:C, I:10-II:C, II:9-III:C; N-terminus and C-terminus assumed)	> 250 µM
CC(C)[C@H](NC(=O)[C@H](C)NC(=O)[C@H](C)NC(=O)CNC(=O)[C@@H](N)CCCNC(=N)N)C(=O)N[C@H](C(=O)N[C@@H](CCCNC(=N)N)C(=O)N[C@@H](CCCNC(=N)N)C(=O)NCCCC[C@H](NC(=O)[C@H](CCCNC(=N)N)NC(=O)[C@H](CCCNC(=N)N)NC(=O)[C@@H](NC(=O)[C@@H](NC(=O)[C@H](C)NC(=O)[C@H](C)NC(=O)CNC(=O)[C@@H](N)CCCNC(=N)N)C(C)C)C(C)C)C(=O)NCCCC[C@H](NC(=O)[C@H](CCCCNC(=O)[C@H](CCCNC(=N)N)NC(=O)[C@H](CCCNC(=N)N)NC(=O)[C@@H](NC(=O)[C@@H](NC(=O)[C@H](C)NC(=O)[C@H](C)NC(=O)CNC(=O)[C@@H](N)CCCNC(=N)N)C(C)C)C(C)C)NC(=O)[C@H](CCCNC(=N)N)NC(=O)[C@H](CCCNC(=N)N)NC(=O)[C@@H](NC(=O)[C@@H](NC(=O)[C@H](C)NC(=O)[C@H](C)NC(=O)CNC(=O)[C@@H](N)CCCNC(=N)N)C(C)C)C(C)C)C(=O)N[C@@H](CCCCN)C(=O)O)C(C)C [[(SEQ ID NO: 10)2K]2KK] (I: H-RGAAVVRRKKK-OH / II: H-RGAAVVRRK / III: H-RGAAVVRR / IV: H-RGAAVVRR; amide I:9-IV:C, I:10-II:C, II:9-III:C; N-terminus and C-terminus assumed)	250 µM
CC(C)[C@H](NC(=O)[C@H](C)NC(=O)[C@H](CCCCN)NC(=O)[C@H](CCCNC(=N)N)NC(=O)CNC(=O)[C@@H](N)CCCNC(=N)N)C(=O)N[C@@H](CCCNC(=N)N)C(=O)N[C@@H](CCCNC(=N)N)C(=O)NCCCC[C@H](NC(=O)[C@H](CCCNC(=N)N)NC(=O)[C@H](CCCNC(=N)N)NC(=O)[C@@H](NC(=O)[C@H](C)NC(=O)[C@H](CCCCN)NC(=O)[C@H](CCCNC(=N)N)NC(=O)CNC(=O)[C@@H](N)CCCNC(=N)N)C(C)C)C(=O)NCCCC[C@H](NC(=O)[C@H](CCCCNC(=O)[C@H](CCCNC(=N)N)NC(=O)[C@H](CCCNC(=N)N)NC(=O)[C@@H](NC(=O)[C@H](C)NC(=O)[C@H](CCCCN)NC(=O)[C@H](CCCNC(=N)N)NC(=O)CNC(=O)[C@@H](N)CCCNC(=N)N)C(C)C)NC(=O)[C@H](CCCNC(=N)N)NC(=O)[C@H](CCCNC(=N)N)NC(=O)[C@@H](NC(=O)[C@H](C)NC(=O)[C@H](CCCCN)NC(=O)[C@H](CCCNC(=N)N)NC(=O)CNC(=O)[C@@H](N)CCCNC(=N)N)C(C)C)C(=O)N[C@@H](CCCCN)C(=O)O [Peptide B4010-V5A] (I: H-RGRKAVRRKKK-OH / II: H-RGRKAVRRK / III: H-RGRKAVRR / IV: H-RGRKAVRR; amide I:9-IV:C, I:10-II:C, II:9-III:C)	190 µM
CC(C)[C@H](NC(=O)[C@H](CCCCN)NC(=O)[C@H](CCCNC(=N)N)NC(=O)[C@H](C)NC(=O)[C@@H](N)CCCNC(=N)N)C(=O)N[C@H](C(=O)N[C@@H](CCCNC(=N)N)C(=O)N[C@@H](CCCNC(=N)N)C(=O)NCCCC[C@H](NC(=O)[C@H](CCCNC(=N)N)NC(=O)[C@H](CCCNC(=N)N)NC(=O)[C@@H](NC(=O)[C@@H](NC(=O)[C@H](CCCCN)NC(=O)[C@H](CCCNC(=N)N)NC(=O)[C@H](C)NC(=O)[C@@H](N)CCCNC(=N)N)C(C)C)C(C)C)C(=O)NCCCC[C@H](NC(=O)[C@H](CCCCNC(=O)[C@H](CCCNC(=N)N)NC(=O)[C@H](CCCNC(=N)N)NC(=O)[C@@H](NC(=O)[C@@H](NC(=O)[C@H](CCCCN)NC(=O)[C@H](CCCNC(=N)N)NC(=O)[C@H](C)NC(=O)[C@@H](N)CCCNC(=N)N)C(C)C)C(C)C)NC(=O)[C@H](CCCNC(=N)N)NC(=O)[C@H](CCCNC(=N)N)NC(=O)[C@@H](NC(=O)[C@@H](NC(=O)[C@H](CCCCN)NC(=O)[C@H](CCCNC(=N)N)NC(=O)[C@H](C)NC(=O)[C@@H](N)CCCNC(=N)N)C(C)C)C(C)C)C(=O)N[C@@H](CCCCN)C(=O)O)C(C)C [Peptide B4010-G2A] (I: H-RARKVVRRKKK-OH / II: H-RARKVVRRK / III: H-RARKVVRR / IV: H-RARKVVRR; amide I:9-IV:C, I:10-II:C, II:9-III:C)	110 µM
C[C@H](NC(=O)[C@H](C)NC(=O)[C@H](CCCNC(=N)N)NC(=O)CNC(=O)[C@@H](N)CCCNC(=N)N)C(=O)N[C@@H](C)C(=O)N[C@@H](CCCNC(=N)N)C(=O)N[C@@H](CCCNC(=N)N)C(=O)NCCCC[C@H](NC(=O)[C@H](CCCNC(=N)N)NC(=O)[C@H](CCCNC(=N)N)NC(=O)[C@H](C)NC(=O)[C@H](C)NC(=O)[C@H](C)NC(=O)[C@H](CCCNC(=N)N)NC(=O)CNC(=O)[C@@H](N)CCCNC(=N)N)C(=O)NCCCC[C@H](NC(=O)[C@H](CCCCNC(=O)[C@H](CCCNC(=N)N)NC(=O)[C@H](CCCNC(=N)N)NC(=O)[C@H](C)NC(=O)[C@H](C)NC(=O)[C@H](C)NC(=O)[C@H](CCCNC(=N)N)NC(=O)CNC(=O)[C@@H](N)CCCNC(=N)N)NC(=O)[C@H](CCCNC(=N)N)NC(=O)[C@H](CCCNC(=N)N)NC(=O)[C@H](C)NC(=O)[C@H](C)NC(=O)[C@H](C)NC(=O)[C@H](CCCNC(=N)N)NC(=O)CNC(=O)[C@@H](N)CCCNC(=N)N)C(=O)N[C@@H](CCCCN)C(=O)O [[(SEQ ID NO: 16)2K]2KK] (I: H-RGRAAARRKKK-OH / II: H-RGRAAARRK / III: H-RGRAAARR / IV: H-RGRAAARR; amide I:9-IV:C, I:10-II:C, II:9-III:C; N-terminus and C-terminus assumed)	169 µM
